Test results reported in ChEMBL document CHEMBL2203118, “Ethyl 2,4,6-trihydroxybenzoate is an agonistic ligand for liver X receptor that induces cholesterol efflux from macrophages without affecting lipid accumulation in HepG2 cells” (Bioorg Med Chem Lett, 2012).
Calls of active or inactive are those of the source. No cut-off for these calls is given here.

How the values were obtained:
[1] = target: T1, Liver X receptor (Homo sapiens) (UniProt Q13133+P55055); experiment: Agonist activity at LXR in human THP1 cells assessed as induction of ABCA1 mRNA expression at 100 uM after 48 hrs by qPCR analysis relative to control; assay type: functional, cell-based; details: THP-1
[2] = tested on: HepG2; experiment: Reduction in SCD-1 gene expression in human HepG2 cells at 100 uM by qPCR analysis relative to control; assay type: functional; design: scale not given: the % may be the effect or the level left
[3] = tested on: HepG2; experiment: Cytotoxicity against human HepG2 cells after 48 hrs by MTT assay; assay type: cell-based; details: hepg2, 48 h
[4] = target: T1, Liver X receptor (Homo sapiens); experiment: Agonist activity at LXR in human Caco2 cells assessed as increase in ABCG5 mRNA level at 100 uM after 48 hrs by qPCR analysis relative to control; assay type: functional, cell-based; details: Caco-2
[5] = target: T2, Oxysterols receptor LXR-alpha (Homo sapiens) (UniProt Q13133); experiment: Agonist activity at LXR-alpha in human Caco2 cells assessed as reduction in cellular cholesterol level; assay type: functional, cell-based; details: Caco-2
T2 sequence (whole entry): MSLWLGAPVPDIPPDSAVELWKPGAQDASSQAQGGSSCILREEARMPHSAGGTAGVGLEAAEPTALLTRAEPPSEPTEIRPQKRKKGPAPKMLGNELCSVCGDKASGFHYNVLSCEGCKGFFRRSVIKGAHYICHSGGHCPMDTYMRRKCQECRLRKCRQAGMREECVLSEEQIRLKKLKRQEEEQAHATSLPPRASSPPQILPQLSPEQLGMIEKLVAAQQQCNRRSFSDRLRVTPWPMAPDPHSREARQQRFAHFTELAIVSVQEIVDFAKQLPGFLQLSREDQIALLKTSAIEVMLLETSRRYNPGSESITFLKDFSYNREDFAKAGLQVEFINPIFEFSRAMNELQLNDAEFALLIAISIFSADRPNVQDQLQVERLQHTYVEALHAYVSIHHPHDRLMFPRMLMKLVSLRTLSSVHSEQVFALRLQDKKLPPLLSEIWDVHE

[6] = target: T2, Oxysterols receptor LXR-alpha (Homo sapiens); experiment: Transactivation of human LXR-alpha transfected in HEK293 cells at 100 uM after 24 hrs by luciferase reporter gene assay; assay type: cell-based
[7] = target: T3, Oxysterols receptor LXR-beta (Homo sapiens) (UniProt P55055); experiment: Binding affinity to human LXR-beta LBD by SPR-Biacore assay
T3 sequence (whole entry): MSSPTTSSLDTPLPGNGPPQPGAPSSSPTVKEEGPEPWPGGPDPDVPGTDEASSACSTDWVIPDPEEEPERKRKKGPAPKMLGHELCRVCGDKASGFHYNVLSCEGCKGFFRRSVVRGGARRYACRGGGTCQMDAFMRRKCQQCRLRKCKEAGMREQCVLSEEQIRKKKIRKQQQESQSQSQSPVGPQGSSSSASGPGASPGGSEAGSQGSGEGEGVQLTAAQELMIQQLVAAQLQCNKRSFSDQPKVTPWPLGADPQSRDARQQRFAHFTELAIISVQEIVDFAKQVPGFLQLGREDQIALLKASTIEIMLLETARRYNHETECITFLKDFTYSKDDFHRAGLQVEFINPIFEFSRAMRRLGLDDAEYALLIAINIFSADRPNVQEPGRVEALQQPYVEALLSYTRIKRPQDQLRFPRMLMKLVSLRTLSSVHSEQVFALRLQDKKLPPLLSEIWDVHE

[8] = tested on: HepG2; experiment: Upregulation of SREBP-1 gene expression in human HepG2 cells at 50 to 100 uM by qPCR analysis relative to control relative to control; assay type: ADME, cell-based; details: hepg2, 100 µM
[9] = tested on: HepG2; experiment: Upregulation of FAS gene expression in human HepG2 cells at 50 to 100 uM by qPCR analysis; assay type: ADME, cell-based; details: hepg2, 100 µM
[10] = target: T4, Oxysterols receptor LXR-alpha (Homo sapiens, UniProt Q13133); experiment: (§1) Agonist activity at human LXR-alpha assessed as increase in recruitment of Trap 220/Drip2 coactivator peptide by TR-FRET assay; assay type: functional
T4 sequence (Q13133 whole entry): T2 sequence (whole entry)

[11] = target: T2, Oxysterols receptor LXR-alpha (Homo sapiens); experiment: as §1; assay type: functional
[12] = target: T3, Oxysterols receptor LXR-beta (Homo sapiens); experiment: Transactivation of human LXR-beta transfected in HEK293 cells at 100 uM after 24 hrs by luciferase reporter gene assay; assay type: cell-based
[13] = tested on: THP-1; experiment: Cytotoxicity against human THP1 cells after 48 hrs by MTT assay; assay type: cell-based; details: thp-1, 48 h
[14] = tested on: HepG2; experiment: Upregulation of SREBP-1 gene expression in human HepG2 cells at 50 to 100 uM by immunoblot analysis; assay type: ADME, cell-based; details: hepg2, 100 µM
[15] = Agonist activity at LXR in mouse RAW 264.7 assessed as induction of ABCA1 mRNA expression at 100 uM after 48 hrs by qPCR analysis relative to control; assay type: functional
[16] = target: T1, Liver X receptor (Homo sapiens); experiment: Agonist activity at LXR in human THP1 monocytes assessed as increase in ABCG1 mRNA level at 100 uM after 48 hrs by qPCR analysis relative to control; assay type: functional, cell-based
[17] = target: T2, Oxysterols receptor LXR-alpha (Homo sapiens); experiment: Agonist activity at LXR-alpha in human THP1 cells assessed as increase cholesterol efflux to HDL by FACs analysis; assay type: functional, cell-based; details: THP-1
[18] = tested on: RAW264.7; experiment: Cytotoxicity against mouse RAW264.7 after 48 hrs by MTT assay; assay type: cell-based; details: raw264.7, 48 h
[19] = target: T5, Oxysterols receptor LXR-beta (Homo sapiens, UniProt P55055); experiment: Transactivation of human LXR-beta transfected in HEK293 cells after 24 hrs by luciferase reporter gene assay; assay type: cell-based
T5 sequence (P55055 whole entry): T3 sequence (whole entry)

[20] = tested on: HepG2; experiment: Induction of lipid accumulation in human HepG2 cells assessed as increase in cellular triglyceride level at 50 to 100 uM by Oil Red O staining relative to control; assay type: cell-based; details: hepg2, 100 µM
[21] = target: T1, Liver X receptor (Homo sapiens); experiment: Agonist activity at LXR in human Caco2 cells assessed as decrease in NPC1L1 mRNA level at 100 uM after 48 hrs by qPCR analysis relative to control; assay type: functional, cell-based; design: scale not given: the % may be the effect or the level left; details: Caco-2

SMILES: CCOC(=O)c1c(O)cc(O)cc1O
- fold change (FC) [1]: 7.4
- Activity [2]: 54.09%
- Activity [3]: Non-toxic
- fold change (FC) [4]: 12.6
- Activity [5]: Dose-dependent effect
- Activity [6]: 64%
- Activity [7]: Active
- Activity [8]: Non-toxic
- Activity [9]: Non-toxic
- EC50 [10]: 1500 nM
- Activity [11]: Dose-dependent effect
- Activity [12]: 55%
- Activity [13]: Non-toxic
- Activity [14]: Non-toxic
- fold change (FC) [15]: 2.1
- fold change (FC) [16]: 5.2
- Activity [17]: Dose-dependent effect
- Activity [18]: Non-toxic
- EC50 [19]: 37.8 µM
- Activity [20]: Non-toxic
- Activity [21]: 33.2%
